Data: PMC4464269, “Potential of acylated peptides to target the influenza A virus” (Beilstein Journal of Organic Chemistry, 2015)
Several values for one entry are separate records, joined by “and”; a condition that tells them apart may be missing. Equal entries are not always repeated. Ends that are not written are not given here.

Tests used:
[1] = system: Aichi H3N2 virus (X31) mediated hemagglutination of human erythrocytes; type: cell-based, influenza A virus A/Aichi/2/1968 H3N2 (X31)
human erythrocytes [2] = type: cell-based
[3] = type: physicochemical; settings: for hydrodynamic diameter (DLS): Zetasizer Nano ZS, back scattering 173°
human erythrocytes [4] = test: Hemolysis assay; type: cell-based; settings: 2% human erythrocytes, 1 h at 37 °C, absorption of the supernatant at 540 nm; titration, three experiments; for C18-s2s above concentrations of 20 µM
Method: To assess how strong membrane incorporation of these peptides can perturb membranes we measured their cell lytic activity in a titration experiment with human erythrocytes. […] For EB the same has been reported by Jones et al..
Figure 7 Hemolytic activity of stearylated peptides and EB. 2% human erythrocytes were incubated for one hour with peptides at 37 °C. After centrifugation, the hemolytic activity was assessed by absorption measurement of the supernatant at 540 nm. Error bars indicate the SEM of three titration experiments.
Peptide inhibitors were serially diluted in PBS, mixed with a 2% human erythrocyte solution, and incubated for 1 h at 37 °C. Afterwards, the mix was centrifuged for 10 min at 1500 x g.
Supernatants were measured for absorption at 540 nm representative for hemoglobin release. Buffer absorbance was subtracted from all data points.
Protection from infection assay
Viral infection inhibition assays were performed using an MTS reagent (Promega). 15,000 MDCK II cells were seeded the day before infection. […] Two hours before the readout, 20 µL MTS solution (Promega) was added to each well and put back to 37 °C for the remaining time. Finally, absorbance at 490 nm was measured by a plate reader (Fluostar optima, BMG) and data were normalized to maximum viral cytotoxicity. […]

[5] = system: Rostock H7N1 virus mediated hemagglutination of turkey erythrocytes; type: cell-based, influenza A virus A/FPV/Rostock/34 H7N1
[6] = system: infection of MDCK II cells by Aichi H3N2; type: cell-based, influenza A virus A/Aichi/2/1968 H3N2 (X31)
[7] = system: infection of MDCK II cells by Rostock H7N1; type: cell-based, influenza A virus A/FPV/Rostock/34 H7N1
[8] = type: physicochemical; settings: 2 mM in PBS, negative staining with 1% phosphotungstic acid pH 7.4; cryo-TEM gave the same results
Aichi H3N2 = settings: at higher viral titer than used in this paper; ref [14]; read-out: IC50 against Aichi H3N2 in the HAI; cited from earlier work
Method: The potential to inhibit binding of influenza viruses to cells can be investigated by the well-established hemagglutination inhibition assay (HAI). All peptides, but the control peptide C18-rs2s were able to inhibit Aichi H3N2 virus mediated hemagglutination already at low micromolar concentrations (Table 2). For EB an IC50 of 20 µM against Aichi H3N2 in the HAI has been determined, however at higher viral titer than we used.

Hongkong H5N1 = settings: read-out: IC50 against Hongkong H5N1; cited from earlier work
[9] = 20 µM in PBS (10 mM, pH 7.4), volume distribution profile

Substance	KiHAI (Aichi H3N2) [1]	KiA (human erythrocytes [2]) [µM]	volume size distribution (DLS), in words ([3]; 20 µM in PBS (10 mM, pH 7.4))	hemolytic activity (human erythrocytes [4])	PDI (DLS) ([3]; 20 µM in PBS (10 mM, pH 7.4))	hydrodynamic diameter (DLS) [3, 9] [nm]	decrease of the KiHAI value compared with unmodified PeB^GF, Aichi H3N2 [1] [fold]	KiHAI (Rostock H7N1) [5]	decrease of the KiHAI value compared with unmodified PeB^GF, H7N1 [5] [fold]	enhancement of inhibitory potential in infection inhibition compared with unmodified PeB^GF, Aichi H3N2 [6]	IC50 ([6]; read-out: IC50, infection inhibition of MDCK cells by Aichi H3N2) [µM]	enhancement of inhibition in infection inhibition compared with unmodified PeB^GF, Rostock H7N1 [7]	IC50 ([7]; read-out: IC50, infection inhibition of MDCK cells by Rostock H7N1) [µM]	share of bigger supramolecular structures (DLS) [3, 9]	size of supramolecular aggregates (DLS) ([3]; concentration of 100 µM) [µm]	morphology of assemblies (TEM) [8]	IC50 (Aichi H3N2) [µM]	IC50 (Hongkong H5N1) [µM]
C17H35CO-ARLPRTMV-CONH2 [C18-s2s, stearylated sialic acid mimetic peptide (Matsubara et al. 2010)]	0.8 ± 0.5 µM	7.0 ± 0.8	multimodal	extremely hemolytic	–	–	–	–	–	–	–	–	–	–	–	–	–	–
C17H35CO-VMTRPLRA-CONH2 [C18-rs2s, reference compound]	no effect	4.1 ± 2.1	–	–	0.328	818.8	–	–	–	–	–	–	–	–	–	–	–	–
C17H35CO-XXXXXXXXXXXXXXX-CONH2 [C18-PeB^GF, stearylated HA antibody derived antiviral peptide]	1.2 ± 0.0 µM	100.0 ± 0.0	–	–	0.454	16.7	20	2.8 µM and 2.8 ± 0.9 µM	10	approx. 5 fold	5.9	did not increase	84	10–15%	> 1	fibrillar supramolecular arrangement being up to several hundred nanometers long	–	–
RRKKAAVALLPAVLLALLAP-NH2 [EB]	1.6 ± 0.3 µM	8.6 ± 7.0	–	–	–	–	–	–	–	–	–	–	–	–	–	–	20	4.5
